Calls of active or inactive are those of the source.
molecular target: Protein-tyrosine kinase 2-beta (Homo sapiens) (UniProt Q14289); experiment: Inhibition of Pyk2-mediated stimulation of human SF767 glioma cell migration at 50 uM by radial migration assay relative to control; conditions: not given
Sequence (Q14289 whole entry, looked up, the tested form may be a part): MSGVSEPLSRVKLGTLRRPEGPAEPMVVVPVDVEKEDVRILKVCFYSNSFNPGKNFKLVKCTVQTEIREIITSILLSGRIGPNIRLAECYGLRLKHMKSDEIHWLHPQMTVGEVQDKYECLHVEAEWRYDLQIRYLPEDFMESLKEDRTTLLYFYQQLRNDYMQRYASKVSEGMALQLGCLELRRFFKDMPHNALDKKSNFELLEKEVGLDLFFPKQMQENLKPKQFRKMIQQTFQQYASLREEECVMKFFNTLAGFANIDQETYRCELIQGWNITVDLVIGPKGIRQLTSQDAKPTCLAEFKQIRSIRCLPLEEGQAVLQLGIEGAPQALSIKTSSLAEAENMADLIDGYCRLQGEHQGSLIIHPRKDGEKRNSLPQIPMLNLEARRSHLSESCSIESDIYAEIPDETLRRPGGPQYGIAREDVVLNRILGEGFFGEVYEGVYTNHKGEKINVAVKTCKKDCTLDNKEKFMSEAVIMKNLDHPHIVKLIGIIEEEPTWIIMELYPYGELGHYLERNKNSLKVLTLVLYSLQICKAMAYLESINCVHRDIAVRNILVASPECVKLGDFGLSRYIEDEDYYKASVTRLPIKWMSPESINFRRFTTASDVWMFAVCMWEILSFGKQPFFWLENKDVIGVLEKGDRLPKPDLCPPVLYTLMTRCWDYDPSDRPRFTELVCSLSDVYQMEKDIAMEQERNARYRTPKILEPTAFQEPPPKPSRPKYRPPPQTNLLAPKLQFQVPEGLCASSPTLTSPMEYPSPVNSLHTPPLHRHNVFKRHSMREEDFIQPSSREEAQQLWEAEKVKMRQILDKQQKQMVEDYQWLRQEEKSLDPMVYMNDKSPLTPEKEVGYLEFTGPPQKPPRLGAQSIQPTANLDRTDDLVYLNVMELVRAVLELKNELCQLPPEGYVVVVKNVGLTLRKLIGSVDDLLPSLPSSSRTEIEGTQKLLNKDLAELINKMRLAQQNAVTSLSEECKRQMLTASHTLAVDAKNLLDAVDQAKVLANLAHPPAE

| SMILES | inhibition |
| --- | --- |
| C=CCOC(=O)NCCSc1nc2ccc(NC(=O)c3csnn3)cc2s1 | 85% |

molecular target: Protein-tyrosine kinase 2-beta (Homo sapiens) (UniProt Q14289); experiment: Binding affinity to human Pyk2 FERM domain by LC/MS depletion assay; conditions: not given

| SMILES | Activity |
| --- | --- |
| C=CCOC(=O)NCCSc1nc2ccc(NC(=O)c3csnn3)cc2s1 | Active |

molecular target: Protein-tyrosine kinase 2-beta (Homo sapiens) (UniProt Q14289); experiment: Inhibition of HA-epitope-tagged Pyk2 FERM domain expressed in HEK293 cells assessed as inhibition of binding to 12A10 antibody by ELISA; assay type: cell-based; parameters: inhibition: concentration or dose not given beside the values; conditions: not given

| SMILES | Activity |
| --- | --- |
| CCOC(=O)c1nc(NC(=O)c2csc(C3CCN(C(=O)NCCC4=CCCCC4)CC3)n2)cn1C | inactive |
| C=CCOC(=O)NCCSc1nc2ccc(NC(=O)C3(C#N)CC3)cc2s1 | inactive |
| COc1ccc(OC)c(NC(=S)NCC(=O)N[C@@H](CC(C)C)C(N)=O)c1 | inactive |
| O=C(CN1CCCN(C(=O)CNC(=O)C(F)(F)F)CC1)Nc1ccc(F)cc1F | inactive |
| CC(=O)Nc1cccc(OCCCNC(=O)c2csc(C3CCN(C(=O)C4CCCCC4)CC3)n2)c1 | inactive |
| C=CCOC(=O)NCCSc1nc2ccc(NC(=O)CCn3c(=O)oc4ccccc43)cc2s1 | inactive |
| C=CCOC(=O)NCCSc1nc2ccc(NC(=O)c3ccccc3S(C)(=O)=O)cc2s1 | inactive |
| CN(C)c1ccc(NC(=S)N2CCC(c3nc(C(=O)NC[C@@H]4COc5ccccc5O4)cs3)CC2)cc1 | inactive |
| COc1ccc(C(N)=O)cc1NC(=O)c1csc(C2CCN(C(=O)c3cc4ccccc4o3)CC2)n1 | inactive |
| C=CCOC(=O)NCCSc1nc2ccc(NC(=O)CS(=O)(=O)c3ccc(C)cc3)cc2s1 | inactive |
| C=CCOC(=O)NCCSc1nc2ccc(NC(=O)c3c(C)noc3C)cc2s1 | inactive |
| C=CCOC(=O)NCCSc1nc2ccc(NC(=O)/C=C/c3ccc([N+](=O)[O-])o3)cc2s1 | inactive |
| CCCCNS(=O)(=O)c1cccc(NC(=O)CNC(=O)c2ccoc2)c1 | inactive |
| C=CCOC(=O)NCCSc1nc2ccc(NC(=O)[C@H]3CCOC3)cc2s1 | inactive |
| COc1ccc(C(=O)CCC(=O)N2CCC(c3nc(C(=O)Nc4cc(C(N)=O)ccc4OC)cs3)CC2)cc1 | inactive |
| CC(C)(C)c1cc(O)nc(SCC(=O)N2CCCN(CC(=O)Nc3ccccc3C(C)(C)C)CC2)n1 | inactive |
| C#CC[C@H](NC(C)=O)C(=O)Nc1ccc2nc(SCCNC(=O)OCC=C)sc2c1 | inactive |
| O=C(Nc1ccccc1N1CCOCC1)c1csc(C2CCN(C(=O)NCCC3=CCCCC3)CC2)n1 | inactive |
| C=CCOC(=O)NCCSc1nc2ccc(NC(=O)c3c([N+](=O)[O-])c(C)nn3C)cc2s1 | inactive |
| O=C(COc1ccccc1)NNC(=O)c1csc(C2CCN(C(=O)NCCC3=CCCCC3)CC2)n1 | inactive |

| SMILES | Activity |
| --- | --- |
| COc1ccc(C(N)=O)cc1NC(=O)c1csc(C2CCN(C(=O)c3cnn(-c4ccccc4)c3C)CC2)n1 | inactive |
| Cc1ccc(C(=O)NCCCn2ccnc2)c(C2CCN(C(=O)/C=C/c3cccc(O)c3)CC2)n1 | inactive |
| CCOC(=O)NNC(=O)c1csc(C2CCN(C(=O)Cc3c[nH]c4ccccc34)CC2)n1 | inactive |
| Cc1ccc(C(=O)NCCc2c[nH]c3ccccc23)c(C2CCN(C(=O)c3ccc(NC(N)=S)cc3)CC2)n1 | inactive |
| COc1ccccc1NC(=O)N1CCC2(CC1)CCN(S(=O)(=O)c1sc(NC(C)=O)nc1C)C2 | inactive |
| C=CCOC(=O)NCCSc1nc2ccc(NC(=O)CNC(=O)OC)cc2s1 | inactive |
| N#Cc1c(Cl)cccc1Oc1ccc(S(=O)(=O)Nc2ccc(S(=O)(=O)Nc3ccccn3)cc2)cc1 | inactive |
| O=C(N1CCc2ccc(S(=O)(=O)Nc3ccc(Cl)nn3)cc2C1)C(F)(F)F | inactive |
| Cc1ccc(C(=O)Nc2nnc(C(C)(C)C)s2)c(C2CCN(C(=O)c3nc4ccccc4nc3O)CC2)n1 | inactive |
| C=CCOC(=O)NCCSc1nc2ccc(NC(=O)C3CCN(C(=O)c4ccccc4)CC3)cc2s1 | inactive |
| CC(=O)Nc1ccc(O)c(C(=O)N2CCC(c3nc(C)ccc3C(=O)NCCc3cccs3)CC2)c1 | inactive |
| C=CCOC(=O)NCCSc1nc2ccc(NC(=O)C(C)(C)n3cncn3)cc2s1 | inactive |
| C=CCOC(=O)NCCSc1nc2ccc(NC(=O)Cc3ccc([N+](=O)[O-])cc3)cc2s1 | inactive |
| Cc1nc(C)c(C(=O)NNC(=O)c2csc(C3CCN(C(=O)Cc4c[nH]c5ccccc45)CC3)n2)s1 | inactive |
| C=CCOC(=O)NCCSc1nc2ccc(NC(=O)Cc3nc(C)sc3C)cc2s1 | inactive |
| CCOc1ccccc1CNC(=O)c1ccc(C)nc1C1CCN(C(=O)/C=C/c2cccc(O)c2)CC1 | inactive |
| O=C(NNC(=O)c1n[nH]c2ccccc12)c1csc(C2CCN(C(=O)NCCC3=CCCCC3)CC2)n1 | inactive |
| O=C(NCC(=O)N1CCC2(CC1)CCN(C(=S)NC[C@@H]1CCCO1)C2)c1ccco1 | inactive |
| C=CCOC(=O)NCCSc1nc2ccc(NC(=O)c3cccc(C#N)c3)cc2s1 | inactive |
| CN(C)c1ccc(NC(=S)N2CCC(c3nc(C(=O)NC[C@H](c4ccc[nH]4)C(F)(F)F)cs3)CC2)cc1 | inactive |

| SMILES | Activity |
| --- | --- |
| O=C(CN1CCCN(C(=O)CNC(=O)c2ccco2)CC1)NCCc1ccccc1 | inactive |
| C=CCOC(=O)NCCSc1nc2ccc(NC(=O)c3cc(NC(C)=O)cc(NC(C)=O)c3)cc2s1 | inactive |
| Cc1cccc(C)c1NC(=O)CN1CCCN(C(=O)CNC(=O)c2ccco2)CC1 | inactive |
| O=C(NNC(=O)[C@H]1CCCNC1=O)c1csc(C2CCN(C(=O)NCCC3=CCCCC3)CC2)n1 | inactive |
| CC(=O)Nc1ccc(S(=O)(=O)NNC(=O)Nc2c(C(C)C)cccc2C(C)C)cc1Cl | inactive |
| Cc1ccc(C(=O)NCCc2cccs2)c(C2CCN(C(=O)c3nc4ccccc4nc3O)CC2)n1 | inactive |
| CCCOCCNC(=O)c1ccc(C)nc1C1CCN(C(=O)c2cc(NC(C)=O)ccc2O)CC1 | inactive |
| Cc1cc(C)cc(NC(=O)N2CCC3(CCN(C(=O)CCCC[C@@H]4SC[C@@H]5NC(=O)N[C@@H]54)C3)CC2)c1 | inactive |
| C=CCOC(=O)NCCSc1nc2ccc(NC(=O)c3ccc([N+](=O)[O-])cc3F)cc2s1 | inactive |
| C=CCOC(=O)NCCSc1nc2ccc(NC(=O)c3cc(C)n(C)n3)cc2s1 | inactive |
| COc1ccc(C(N)=O)cc1NC(=O)c1csc(C2CCN(C(=O)c3cc(OC)c4ccccc4n3)CC2)n1 | inactive |
| C=CCOC(=O)NCCSc1nc2ccc(NC(=O)[C@H]3CCCN3C(=O)c3cccs3)cc2s1 | inactive |
| CN(C)c1ccc(NC(=S)N2CCC(c3nc(C(=O)NCCOc4ccccc4Cl)cs3)CC2)cc1 | inactive |
| COC(=O)c1ccc(NS(=O)(=O)c2ccc(NC(C)=O)c(Cl)c2)cc1OC | inactive |
| COc1ccc(C(N)=O)cc1NC(=O)c1csc(C2CCN(C(=O)C#Cc3ccccc3)CC2)n1 | inactive |
| Cc1cc(NS(=O)(=O)c2ccc3c(c2)CN(C(=O)C(F)(F)F)CC3)nc(C)n1 | inactive |
| CN(C)c1ccc(NC(=S)N2CCC(c3nc(C(=O)NCCc4c[nH]c5ccc(F)cc45)cs3)CC2)cc1 | inactive |
| C=CCOC(=O)NCCSc1nc2ccc(NC(=O)c3coc4c3C(=O)CCC4)cc2s1 | inactive |

same assay, conditions: concentration not given here

| SMILES | inhibition |
| --- | --- |
| C=CCOC(=O)NCCSc1nc2ccc(NC(=O)CSc3ccccn3)cc2s1 | 22% |
| Cc1ccc(C(=O)NCCc2cc3ccccc3[nH]2)c(C2CCN(C(=O)CNC(=O)Nc3ccccc3)CC2)n1 | 6% |
| CC(=O)Nc1ccc(S(=O)(=O)NNC(=O)Nc2ccccc2-c2ccccc2)cc1Cl | 24% |
| C=CCOC(=O)NCCSc1nc2ccc(NC(=O)c3csnn3)cc2s1 | 33% |
| C=CCOC(=O)NCCSc1nc2ccc(NC(=O)CSc3nc(C)cc(C)n3)cc2s1 | 19% |
| O=C(NCC(=O)N1CCC2(CC1)CCN(C(=O)Cc1n[nH]c(=O)c3ccccc13)C2)c1ccco1 | 18% |
| C=CCOC(=O)NCCSc1nc2ccc(NC(=O)[C@H]3CC(=O)c4ccccc43)cc2s1 | 11% |
| COc1ccc(NC(C)=O)cc1NS(=O)(=O)c1ccc(NC(C)=O)cc1 | 18% |

molecular target: Protein-tyrosine kinase 2-beta (Homo sapiens) (UniProt Q14289); experiment: Inhibition of Pyk2-mediated stimulation of human SF767 glioma cell migration at 5 uM by radial migration assay relative to control; conditions: not given

| SMILES | inhibition |
| --- | --- |
| C=CCOC(=O)NCCSc1nc2ccc(NC(=O)c3csnn3)cc2s1 | 50% |
